Experimental data taken from PMC4827351 (Chemical Science, 2015).

Tests used:
[1] = test system: L. monocytogenes ATCC 19115 invasion of human T84 colon epithelial cells; assay: Listeria invasion assay; format: cell-based, Listeria monocytogenes; settings: proHD6 ≤10 µM, no trypsin, bacteria pre-incubated with peptide 30 min at room temperature, n = 3
Description: Fig. 5 Listeria invasion assays for native and cleaved proHD6. Invasion of human T84 colon epithelial cells by L. monocytogenes ATCC 19115 pre-treated with proHD6 in the absence and presence of 0.4 μM trypsin or HD6 (control). The bacteria (2 × 10^6 CFU mL^–1) were incubated with the indicated peptides for 30 min prior to the infection of the T84 cells (mean ± SDM, n = 3).
Concentrated (20×, 10 μL) solutions of HD6 and proHD6 were prepared in sterile Milli-Q water (0, 50, 100, and 200 μM). For conditions that required trypsin, a 1 mg mL^–1 stock solution of TPCK-treated trypsin (Worthington) in sterile Milli-Q water was added to the 20× proHD6 solutions to yield a final trypsin concentration of 0.01 mg mL^–1. A 190 μL aliquot of the diluted bacterial culture was added to each […] peptide solution and the resulting mixtures were incubated at room temperature for 30 min. The invasion assays were then performed by following a literature protocol.[15],[50] All invasion assays were conducted with at least two independently prepared and purified samples of each peptide and in three independent trials and the resulting averages with standard deviations are reported.

[2] = Sedimentation velocity analytical ultracentrifugation; format: physicochemical; settings: SV-AUC; for s20,w: 42 000 rpm, 20 °C, A280, DCDT+; for MW (best-fit molecular mass) / D: DCDT+
Description: The experiments were set up as previously reported.[15] In one set of experiments, 10× concentrated proHD6 solutions in Milli-Q water (≈40 μL) were transferred to microcentrifuge tubes and lyophilized to dryness. […] The pH of each solution was measured to confirm that it remained unchanged. The samples were centrifuged at 42 000 rpm and 20 °C until sedimentation was complete. The absorption wavelength for optical detection was 280 nm. All SV experiments were conducted with at least two independently prepared and purified samples of each peptide and in at least two independent trials.
Additional SV experiments were conducted to evaluate the effect of buffer components on the sedimentation of proHD6. In all cases, the proHD6 samples (400 μL) were prepared as described above except that proHD6 was dissolved in 10 mM Tris–HCl or HEPES pH 7.4 to obtain a final peptide concentration of 50 μM.
The experimental sedimentation coefficients were calculated by fitting the time derivative of the sedimentation velocity (–dc/dt) data using DCDT+.[29],[54] The –dc/dt distribution was generated from 22 to 28 scans with a peak broadening limit of 40 kDa by using DCDT+.
Table S4. Calculated sedimentation coefficients of proHD6.a
Concentration Buffer pH s20,w (S) D (F) MW (kDa) Partial Specific
(µM) (10 mM) Volume (mL/g) […]
a All samples were prepared in the indicated buffer; NaP is sodium phosphate. The temperature was 20 °C. Data were obtained by analysis with the dc/dt method implemented in DCDT+ using 22- 28 scans with 40 kDa diffusion broadening maximum. Sedimentation coefficients are s20,w values, adjusted with a solvent density (ρ) of 0.99967 g/mL and a solvent viscosity (η) of 1.0061 cP. Viscosity units are in centipoise (cP) (1 poise = 1 gŸ[…]cm-1Ÿ[…]s-1). Sedimentation coefficients are in svedbergs (1 svedberg = 100 fs = 1 x 10-13 s). Diffusion coefficients correspond to the best-fit molecular mass in Fick units (1 Fick = 1 x 10-7 cm2/s). HEPES has a solvent density (ρ) of 0.99901 g/mL and a solvent viscosity (η) of 1.0104 cP at 20 °C. Tris-HCl has a solvent density (ρ) of 0.99851 g/mL and a solvent viscosity (η) of 1.0037 cP at 20 °C. The solvent densities, viscosities, and the partial specific volume values of proHD6 monomer and dimer were […]

[3] = proHD6 30 µM, 10 mM NaP pH 7.4, first 30 µM line
[4] = proHD6 30 µM, 10 mM NaP pH 7.4, second 30 µM line
[5] = proHD6 30 µM, 10 mM NaP pH 7.4, third 30 µM line
[6] = proHD6 50 µM, 10 mM HEPES pH 7.4
[7] = proHD6 50 µM, 10 mM NaP pH 7.4, first 50 µM line
[8] = proHD6 50 µM, 10 mM NaP pH 7.4, second 50 µM line
[9] = proHD6 50 µM, 10 mM Tris-HCl pH 7.4
[10] = proHD6 100 µM, 10 mM NaP pH 7.4
[11] = proHD6 120 µM, 10 mM NaP pH 7.4
[12] = proHD6 140 µM, 10 mM NaP pH 7.4

Question: With “EPLQAEDDPLQAKAYEADAQEQRGANDQDFAVSFAEDASSSLRALGSTRAFTCHCRRSCYSTEYSYGTCTVMGINHRFCCL (disulfide (positions not given here)) [proHD6, 81-residue propeptide of human α-defensin 6, recombinant, from His6-SUMO-proHD6]” as the sequence, how does the “L. monocytogenes invasion into human intestinal epithelial cells” value [1] read?
Answer: did not impair

Question: What about the “s20,w” value [2, 3] of the same sequence?
Answer: 1.727 S

Question: And the “s20,w” value [2, 4]?
Answer: 1.798 S

Question: And the “s20,w” value [2, 5]?
Answer: 1.733 S

Question: And the “s20,w” value [2, 6]?
Answer: 1.763 S

Question: And the “s20,w” value [2, 7]?
Answer: 1.844 S

Question: And the “s20,w” value [2, 8]?
Answer: 1.865 S

Question: And the “s20,w” value [2, 9]?
Answer: 1.783 S

Question: And the “s20,w” value [2, 10]?
Answer: 1.843 S

Question: And the “s20,w” value [2, 11]?
Answer: 1.769 S

Question: What about the “s20,w” value [2, 12] of the same sequence?
Answer: 1.751 S

Question: And the “MW (best-fit molecular mass)” value [2, 3]?
Answer: 14.3 kDa

Question: And the D ([2]; proHD6 30 µM, 10 mM NaP pH 7.4, first 30 µM line, 1 Fick = 1 x 10-7 cm2/s)?
Answer: 9.83 F

Question: What about the D [2, 4] of the same sequence?
Answer: 11.5 F

Question: What about the “MW (best-fit molecular mass)” value [2, 4] of the same sequence?
Answer: 12.8 kDa

Question: And the D [2, 5]?
Answer: 9.73 F

Question: And the “MW (best-fit molecular mass)” value [2, 5]?
Answer: 14.5 kDa

Question: And the D [2, 6]?
Answer: 9.94 F

Question: And the “MW (best-fit molecular mass)” value [2, 6]?
Answer: 14.4 kDa

Question: And the D [2, 7]?
Answer: 10.4 F

Question: What about the “MW (best-fit molecular mass)” value [2, 7] of the same sequence?
Answer: 14.4 kDa

Question: What about the D [2, 8] of the same sequence?
Answer: 10.3 F

Question: And the “MW (best-fit molecular mass)” value [2, 8]?
Answer: 14.8 kDa

Question: And the D [2, 9]?
Answer: 8.97 F

Question: What about the “MW (best-fit molecular mass)” value [2, 9] of the same sequence?
Answer: 16.1 kDa

Question: And the D [2, 10]?
Answer: 13.8 F

Question: What about the “MW (best-fit molecular mass)” value [2, 10] of the same sequence?
Answer: 10.9 kDa

Question: What about the D [2, 11] of the same sequence?
Answer: 9.16 F

Question: And the “MW (best-fit molecular mass)” value [2, 11]?
Answer: 15.7 kDa

Question: And the D [2, 12]?
Answer: 9.47 F

Question: And the “MW (best-fit molecular mass)” value [2, 12]?
Answer: 15.0 kDa
